Where two headings read alike, the source gives them in different places. Positions of bridges follow the written chain, without caps; N, C: chain ends. Residues, ends and D or L forms follow the SMILES beside them.

Holding throughout (assay): cell-based
One test addresses hNav1.7 (Homo sapiens, UniProt Q15858). The format is cell-based.
Another test concerns the target hNav1.5 (Homo sapiens, UniProt Q14524).
A further test addresses hNav1.3 (Homo sapiens, UniProt Q9NY46). Particulars: IonWorks Quattro, read-out: IWQ Use Nav1.3.
[1] abbreviates: IonWorks Quattro, Use, read-out: IWQ Use Nav1.7.
[2] abbreviates: IonWorks Quattro, Use, read-out: IWQ Use Nav1.5.

Chain of hNav1.7 (Q15858 whole entry, looked up): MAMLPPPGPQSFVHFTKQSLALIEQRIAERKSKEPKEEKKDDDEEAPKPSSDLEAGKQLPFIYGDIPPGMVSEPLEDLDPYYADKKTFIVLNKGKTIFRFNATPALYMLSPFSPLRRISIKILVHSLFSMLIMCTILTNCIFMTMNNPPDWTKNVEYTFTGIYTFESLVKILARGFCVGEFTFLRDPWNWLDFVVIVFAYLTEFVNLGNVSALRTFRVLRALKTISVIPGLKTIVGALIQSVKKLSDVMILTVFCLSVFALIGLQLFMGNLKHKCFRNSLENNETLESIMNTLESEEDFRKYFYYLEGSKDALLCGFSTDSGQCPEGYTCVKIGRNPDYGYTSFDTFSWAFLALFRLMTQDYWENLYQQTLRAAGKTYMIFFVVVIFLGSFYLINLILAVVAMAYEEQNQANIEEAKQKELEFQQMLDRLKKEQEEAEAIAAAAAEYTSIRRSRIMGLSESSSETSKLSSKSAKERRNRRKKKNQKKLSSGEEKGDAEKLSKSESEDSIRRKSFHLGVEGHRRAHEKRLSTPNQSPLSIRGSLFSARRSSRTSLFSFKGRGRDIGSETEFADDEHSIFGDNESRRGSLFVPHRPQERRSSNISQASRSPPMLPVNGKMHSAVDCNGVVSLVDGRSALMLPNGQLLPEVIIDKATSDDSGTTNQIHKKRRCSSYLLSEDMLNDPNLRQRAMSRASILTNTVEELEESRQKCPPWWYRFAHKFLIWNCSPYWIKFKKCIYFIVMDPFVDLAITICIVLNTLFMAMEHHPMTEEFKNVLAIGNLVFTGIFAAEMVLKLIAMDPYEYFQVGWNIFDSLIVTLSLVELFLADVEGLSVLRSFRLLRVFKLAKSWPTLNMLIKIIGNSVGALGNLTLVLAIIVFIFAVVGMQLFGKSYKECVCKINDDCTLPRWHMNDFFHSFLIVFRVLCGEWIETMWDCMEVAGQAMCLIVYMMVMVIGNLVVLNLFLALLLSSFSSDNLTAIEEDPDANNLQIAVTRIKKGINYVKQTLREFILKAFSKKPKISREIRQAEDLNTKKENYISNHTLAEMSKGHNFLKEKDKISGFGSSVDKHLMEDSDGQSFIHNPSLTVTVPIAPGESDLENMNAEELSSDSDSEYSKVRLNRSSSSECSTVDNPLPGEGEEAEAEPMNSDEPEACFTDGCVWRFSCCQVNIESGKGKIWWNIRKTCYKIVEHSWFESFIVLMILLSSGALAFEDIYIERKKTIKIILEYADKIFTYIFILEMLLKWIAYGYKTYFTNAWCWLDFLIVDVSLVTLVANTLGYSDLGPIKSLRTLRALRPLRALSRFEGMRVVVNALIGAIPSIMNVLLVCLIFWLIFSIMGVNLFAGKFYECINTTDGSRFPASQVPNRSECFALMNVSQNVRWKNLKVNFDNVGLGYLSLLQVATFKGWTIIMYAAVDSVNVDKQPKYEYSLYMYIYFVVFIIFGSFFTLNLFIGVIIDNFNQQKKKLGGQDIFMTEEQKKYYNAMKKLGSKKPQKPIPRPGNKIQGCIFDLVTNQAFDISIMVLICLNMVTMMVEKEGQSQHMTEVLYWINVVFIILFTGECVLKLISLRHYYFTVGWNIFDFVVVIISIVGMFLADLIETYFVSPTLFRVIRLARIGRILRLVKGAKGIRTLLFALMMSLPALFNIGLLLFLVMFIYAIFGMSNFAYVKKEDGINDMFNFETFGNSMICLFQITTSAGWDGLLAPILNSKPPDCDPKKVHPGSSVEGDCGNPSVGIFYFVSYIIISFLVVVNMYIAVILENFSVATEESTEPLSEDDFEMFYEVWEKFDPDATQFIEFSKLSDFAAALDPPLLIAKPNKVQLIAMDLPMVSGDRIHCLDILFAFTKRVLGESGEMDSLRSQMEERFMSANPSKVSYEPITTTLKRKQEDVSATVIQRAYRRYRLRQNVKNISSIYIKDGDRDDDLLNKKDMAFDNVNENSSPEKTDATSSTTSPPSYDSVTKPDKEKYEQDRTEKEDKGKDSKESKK
Chain of hNav1.5 (Q14524 whole entry, looked up): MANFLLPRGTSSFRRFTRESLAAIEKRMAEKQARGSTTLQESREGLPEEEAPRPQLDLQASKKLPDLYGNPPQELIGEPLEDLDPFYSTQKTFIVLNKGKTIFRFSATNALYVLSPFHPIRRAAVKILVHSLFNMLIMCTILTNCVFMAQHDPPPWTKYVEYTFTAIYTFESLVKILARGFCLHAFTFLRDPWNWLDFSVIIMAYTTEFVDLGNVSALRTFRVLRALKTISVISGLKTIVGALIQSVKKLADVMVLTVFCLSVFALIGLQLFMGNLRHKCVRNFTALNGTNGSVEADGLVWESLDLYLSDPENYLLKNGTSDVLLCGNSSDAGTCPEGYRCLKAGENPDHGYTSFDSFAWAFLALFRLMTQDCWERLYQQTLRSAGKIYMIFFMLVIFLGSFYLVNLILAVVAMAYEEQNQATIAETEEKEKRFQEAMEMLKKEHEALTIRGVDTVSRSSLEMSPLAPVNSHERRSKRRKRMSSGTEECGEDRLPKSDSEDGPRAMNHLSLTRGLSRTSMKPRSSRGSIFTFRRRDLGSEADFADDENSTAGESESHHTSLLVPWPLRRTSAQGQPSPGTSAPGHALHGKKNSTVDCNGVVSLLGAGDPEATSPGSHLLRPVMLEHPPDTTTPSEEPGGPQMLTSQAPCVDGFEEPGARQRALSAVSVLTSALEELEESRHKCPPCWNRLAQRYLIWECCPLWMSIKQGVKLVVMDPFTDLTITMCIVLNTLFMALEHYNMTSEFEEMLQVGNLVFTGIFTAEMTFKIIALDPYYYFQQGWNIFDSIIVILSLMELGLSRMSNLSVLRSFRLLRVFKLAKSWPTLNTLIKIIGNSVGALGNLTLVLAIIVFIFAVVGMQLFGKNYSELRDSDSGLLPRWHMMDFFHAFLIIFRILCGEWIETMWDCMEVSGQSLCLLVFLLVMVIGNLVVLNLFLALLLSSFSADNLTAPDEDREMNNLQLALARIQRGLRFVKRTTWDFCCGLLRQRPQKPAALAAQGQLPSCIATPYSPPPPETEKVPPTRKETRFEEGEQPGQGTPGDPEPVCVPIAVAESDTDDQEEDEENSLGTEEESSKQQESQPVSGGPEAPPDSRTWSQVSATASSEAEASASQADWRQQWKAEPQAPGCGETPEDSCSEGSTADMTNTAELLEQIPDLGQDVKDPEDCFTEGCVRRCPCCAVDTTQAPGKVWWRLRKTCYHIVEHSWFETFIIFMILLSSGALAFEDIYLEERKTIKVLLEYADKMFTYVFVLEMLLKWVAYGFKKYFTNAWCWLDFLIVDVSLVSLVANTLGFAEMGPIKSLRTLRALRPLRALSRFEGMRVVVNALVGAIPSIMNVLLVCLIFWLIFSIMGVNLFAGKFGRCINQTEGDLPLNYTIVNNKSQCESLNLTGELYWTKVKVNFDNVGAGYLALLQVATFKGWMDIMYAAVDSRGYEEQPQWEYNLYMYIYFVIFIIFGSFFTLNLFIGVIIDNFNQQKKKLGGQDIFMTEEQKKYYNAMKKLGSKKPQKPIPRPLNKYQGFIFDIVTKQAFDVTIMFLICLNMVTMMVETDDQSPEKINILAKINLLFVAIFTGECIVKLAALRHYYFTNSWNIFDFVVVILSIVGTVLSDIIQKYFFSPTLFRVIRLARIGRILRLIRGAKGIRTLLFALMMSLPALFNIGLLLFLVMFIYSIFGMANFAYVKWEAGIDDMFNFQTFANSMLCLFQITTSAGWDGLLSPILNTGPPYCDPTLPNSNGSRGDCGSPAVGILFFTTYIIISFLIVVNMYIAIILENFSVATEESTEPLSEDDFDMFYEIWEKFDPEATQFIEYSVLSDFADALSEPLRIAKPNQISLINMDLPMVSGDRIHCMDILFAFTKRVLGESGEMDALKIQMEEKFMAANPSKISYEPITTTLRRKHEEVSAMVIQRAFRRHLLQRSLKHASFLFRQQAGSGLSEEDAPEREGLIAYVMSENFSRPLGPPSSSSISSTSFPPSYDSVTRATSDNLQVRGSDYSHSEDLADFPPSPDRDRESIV

With `CC[C@H](C)[C@@H]1NC(=O)[C@@H]2CSSC[C@@H]3NC(=O)[C@H](C(C)C)NC(=O)[C@H](CC(C)C)NC(=O)[C@H](CC(N)=O)NC(=O)[C@@H]4CCCN4C(=O)[C@H](CCCNC(=N)N)NC(=O)[C@H](CSSC[C@H](NC(=O)[C@@H](N)CC(=O)O)C(=O)N[C@@H](CC(C)C)C(=O)NCC(=O)N[C@@H](Cc4ccccc4)C(=O)N[C@@H](CCSC)C(=O)N[C@@H](CCCNC(=N)N)C(=O)N[C@@H](CCCCN)C(=O)N2)NC(=O)[C@H](CSSC[C@@H](C(=O)N[C@@H](CCCCN)C(=O)N[C@@H](Cc2ccc(O)cc2)C(=O)N[C@H](C(=O)N[C@@H](Cc2ccccc2)C(N)=O)C(C)C)NC(=O)[C@H](Cc2c[nH]c4ccccc24)NC(=O)[C@H](CCCCN)NC(=O)[C@H](Cc2cnc[nH]2)NC(=O)[C@H]([C@@H](C)O)NC(=O)[C@H](CCCNC(=N)N)NC(=O)[C@H](CO)NC3=O)NC(=O)[C@H](CCCCN)NC(=O)[C@H](CC(=O)O)NC(=O)[C@H](CC(N)=O)NC(=O)[C@H](Cc2c[nH]c3ccccc23)NC(=O)[C@@H]2CCCN2C1=O` [compound 172] (H-DCLGFMRKCIPWNDKCCRPNLVCSRTHKWCKYVF-NH2; disulfide 2-17, 9-23, 16-30), the IC50 at hNav1.7 (setting [1]) is 50 nM; at hNav1.5 (setting [2]), 8.04 µM; on hNav1.3 (Use), 40 nM.
Consider `CC[C@H](C)[C@@H]1NC(=O)[C@@H]2CSSC[C@@H]3NC(=O)[C@H](C(C)C)NC(=O)[C@H](CC(C)C)NC(=O)[C@H](CC(N)=O)NC(=O)[C@@H]4CCCN4C(=O)[C@H](CCCNC(=N)N)NC(=O)[C@H](CSSC[C@H](NC(=O)[C@@H](N)CC(=O)O)C(=O)N[C@@H](CC(C)C)C(=O)NCC(=O)N[C@@H](Cc4ccccc4)C(=O)N[C@@H](CCSC)C(=O)N[C@@H](CCCNC(=N)N)C(=O)N[C@@H](CCCCN)C(=O)N2)NC(=O)[C@H](CSSC[C@@H](C(=O)N[C@@H](CCCCN)C(=O)N[C@@H](Cc2ccc(O)cc2)C(=O)N[C@H](C(=O)N[C@@H](Cc2ccccc2)C(N)=O)C(C)C)NC(=O)[C@H](Cc2c[nH]c4ccccc24)NC(=O)[C@H](CCCCN)NC(=O)[C@H](Cc2cnc[nH]2)NC(=O)[C@H]([C@@H](C)O)NC(=O)[C@H](CCCNC(=N)N)NC(=O)[C@H](CO)NC3=O)NC(=O)[C@H](CCCCN)NC(=O)[C@H](CC(=O)O)NC(=O)[C@H](Cc2c[nH]c3ccccc23)NC(=O)[C@H](CC(=O)O)NC(=O)[C@@H]2CCCN2C1=O` [compound 173] (H-DCLGFMRKCIPDWDKCCRPNLVCSRTHKWCKYVF-NH2; disulfide 2-17, 9-23, 16-30), for which the IC50 at hNav1.7 (setting [1]) came out at 90 nM; on hNav1.5 (setting [2]), 17.3 µM; at hNav1.3 (Use) it was 50 nM.
Take `CC[C@H](C)[C@@H]1NC(=O)[C@@H]2CSSC[C@@H]3NC(=O)[C@H](C(C)C)NC(=O)[C@H](CC(C)C)NC(=O)[C@H](CC(N)=O)NC(=O)[C@@H]4CCCN4C(=O)[C@H](Cc4c[nH]c5ccccc45)NC(=O)[C@H](CSSC[C@H](NC(=O)[C@@H](N)CC(=O)O)C(=O)N[C@@H](CC(C)C)C(=O)NCC(=O)N[C@@H](Cc4ccccc4)C(=O)N[C@@H](CCSC)C(=O)N[C@@H](CCCNC(=N)N)C(=O)N[C@@H](CCCCN)C(=O)N2)NC(=O)[C@H](CSSC[C@@H](C(=O)N[C@@H](CCCCN)C(=O)N[C@@H](Cc2ccc(O)cc2)C(=O)N[C@H](C(=O)N[C@@H](Cc2ccccc2)C(N)=O)C(C)C)NC(=O)[C@H](Cc2c[nH]c4ccccc24)NC(=O)[C@H](CCCCN)NC(=O)[C@H](Cc2c[nH]cn2)NC(=O)[C@H]([C@@H](C)O)NC(=O)[C@H](CCCNC(=N)N)NC(=O)[C@H](CO)NC3=O)NC(=O)[C@H](CCCCN)NC(=O)[C@H](CC(=O)O)NC(=O)[C@H](CC(N)=O)NC(=O)[C@H](CC(=O)O)NC(=O)[C@@H]2CCCN2C1=O` [compound 174] (H-DCLGFMRKCIPDNDKCCWPNLVCSRTHKWCKYVF-NH2; disulfide 2-17, 9-23, 16-30): the IC50 was found to be 190 nM at hNav1.7 (setting [1]), 14.7 µM on hNav1.5 (setting [2]) and 80 nM on hNav1.3 (Use).
For `CC[C@H](C)[C@@H]1NC(=O)[C@@H]2CSSC[C@@H]3NC(=O)[C@H](C(C)C)NC(=O)[C@H](CC(C)C)NC(=O)[C@H](Cc4c[nH]c5ccccc45)NC(=O)[C@@H]4CCCN4C(=O)[C@H](CCCNC(=N)N)NC(=O)[C@H](CSSC[C@H](NC(=O)[C@@H](N)CC(=O)O)C(=O)N[C@@H](CC(C)C)C(=O)NCC(=O)N[C@@H](Cc4ccccc4)C(=O)N[C@@H](CCSC)C(=O)N[C@@H](CCCNC(=N)N)C(=O)N[C@@H](CCCCN)C(=O)N2)NC(=O)[C@H](CSSC[C@@H](C(=O)N[C@@H](CCCCN)C(=O)N[C@@H](Cc2ccc(O)cc2)C(=O)N[C@H](C(=O)N[C@@H](Cc2ccccc2)C(N)=O)C(C)C)NC(=O)[C@H](Cc2c[nH]c4ccccc24)NC(=O)[C@H](CCCCN)NC(=O)[C@H](Cc2cnc[nH]2)NC(=O)[C@H]([C@@H](C)O)NC(=O)[C@H](CCCNC(=N)N)NC(=O)[C@H](CO)NC3=O)NC(=O)[C@H](CCCCN)NC(=O)[C@H](CC(=O)O)NC(=O)[C@H](CC(N)=O)NC(=O)[C@H](CC(=O)O)NC(=O)[C@@H]2CCCN2C1=O` [compound 175] (H-DCLGFMRKCIPDNDKCCRPWLVCSRTHKWCKYVF-NH2; disulfide 2-17, 9-23, 16-30), the IC50 on hNav1.7 (setting [1]) came to 50 nM; at hNav1.5 (setting [2]), 7.39 µM; at hNav1.3 (Use), 20 nM.
For `CC[C@H](C)[C@@H]1NC(=O)[C@@H]2CSSC[C@@H]3NC(=O)[C@H](C(C)C)NC(=O)[C@H](Cc4c[nH]c5ccccc45)NC(=O)[C@H](CC(N)=O)NC(=O)[C@@H]4CCCN4C(=O)[C@H](CCCNC(=N)N)NC(=O)[C@H](CSSC[C@H](NC(=O)[C@@H](N)CC(=O)O)C(=O)N[C@@H](CC(C)C)C(=O)NCC(=O)N[C@@H](Cc4ccccc4)C(=O)N[C@@H](CCSC)C(=O)N[C@@H](CCCNC(=N)N)C(=O)N[C@@H](CCCCN)C(=O)N2)NC(=O)[C@H](CSSC[C@@H](C(=O)N[C@@H](CCCCN)C(=O)N[C@@H](Cc2ccc(O)cc2)C(=O)N[C@H](C(=O)N[C@@H](Cc2ccccc2)C(N)=O)C(C)C)NC(=O)[C@H](Cc2c[nH]c4ccccc24)NC(=O)[C@H](CCCCN)NC(=O)[C@H](Cc2cnc[nH]2)NC(=O)[C@H]([C@@H](C)O)NC(=O)[C@H](CCCNC(=N)N)NC(=O)[C@H](CO)NC3=O)NC(=O)[C@H](CCCCN)NC(=O)[C@H](CC(=O)O)NC(=O)[C@H](CC(N)=O)NC(=O)[C@H](CC(=O)O)NC(=O)[C@@H]2CCCN2C1=O` [compound 176] (H-DCLGFMRKCIPDNDKCCRPNWVCSRTHKWCKYVF-NH2; disulfide 2-17, 9-23, 16-30), the IC50 against hNav1.7 came out at 100 nM; against hNav1.5 (IWQ Use Nav1.5 (μM)) it was 13.8 µM; on hNav1.3 (Use), 50 nM.
On to `CC[C@H](C)[C@@H]1NC(=O)[C@@H]2CSSC[C@@H]3NC(=O)[C@H](Cc4c[nH]c5ccccc45)NC(=O)[C@H](CC(C)C)NC(=O)[C@H](CC(N)=O)NC(=O)[C@@H]4CCCN4C(=O)[C@H](CCCNC(=N)N)NC(=O)[C@H](CSSC[C@H](NC(=O)[C@@H](N)CC(=O)O)C(=O)N[C@@H](CC(C)C)C(=O)NCC(=O)N[C@@H](Cc4ccccc4)C(=O)N[C@@H](CCSC)C(=O)N[C@@H](CCCNC(=N)N)C(=O)N[C@@H](CCCCN)C(=O)N2)NC(=O)[C@H](CSSC[C@@H](C(=O)N[C@@H](CCCCN)C(=O)N[C@@H](Cc2ccc(O)cc2)C(=O)N[C@H](C(=O)N[C@@H](Cc2ccccc2)C(N)=O)C(C)C)NC(=O)[C@H](Cc2c[nH]c4ccccc24)NC(=O)[C@H](CCCCN)NC(=O)[C@H](Cc2cnc[nH]2)NC(=O)[C@H]([C@@H](C)O)NC(=O)[C@H](CCCNC(=N)N)NC(=O)[C@H](CO)NC3=O)NC(=O)[C@H](CCCCN)NC(=O)[C@H](CC(=O)O)NC(=O)[C@H](CC(N)=O)NC(=O)[C@H](CC(=O)O)NC(=O)[C@@H]2CCCN2C1=O` [compound 177] (H-DCLGFMRKCIPDNDKCCRPNLWCSRTHKWCKYVF-NH2; disulfide 2-17, 9-23, 16-30), for which the IC50 was 30 nM at hNav1.7, 8.02 µM at hNav1.5 (IWQ Use Nav1.5 (μM)) and 60 nM on hNav1.3 (Use).
As for `CC[C@H](C)[C@@H]1NC(=O)[C@@H]2CSSC[C@@H]3NC(=O)[C@H](C(C)C)NC(=O)[C@H](CC(C)C)NC(=O)[C@H](CC(N)=O)NC(=O)[C@@H]4CCCN4C(=O)[C@H](CCCNC(=N)N)NC(=O)[C@H](CSSC[C@H](NC(=O)[C@@H](N)CC(=O)O)C(=O)N[C@@H](CC(C)C)C(=O)NCC(=O)N[C@@H](Cc4ccccc4)C(=O)N[C@@H](CCSC)C(=O)N[C@@H](CCCNC(=N)N)C(=O)N[C@@H](CCCCN)C(=O)N2)NC(=O)[C@H](CSSC[C@@H](C(=O)N[C@@H](CCCCN)C(=O)N[C@@H](Cc2ccc(O)cc2)C(=O)N[C@H](C(=O)N[C@@H](Cc2ccccc2)C(N)=O)C(C)C)NC(=O)[C@H](Cc2c[nH]c4ccccc24)NC(=O)[C@H](CCCCN)NC(=O)[C@H](Cc2cnc[nH]2)NC(=O)[C@H](Cc2c[nH]c4ccccc24)NC(=O)[C@H](CCCNC(=N)N)NC(=O)[C@H](CO)NC3=O)NC(=O)[C@H](CCCCN)NC(=O)[C@H](CC(=O)O)NC(=O)[C@H](CC(N)=O)NC(=O)[C@H](CC(=O)O)NC(=O)[C@@H]2CCCN2C1=O` [compound 178] (H-DCLGFMRKCIPDNDKCCRPNLVCSRWHKWCKYVF-NH2; disulfide 2-17, 9-23, 16-30), the IC50 at hNav1.7 (Table 22, IonWorks Quattro, use, […], read-out: IWQ Use Nav1.7) amounted to 30 nM; on hNav1.5 (Table 22, IonWorks Quattro, use, […], read-out: IWQ Use Nav1.5), 5.84 µM; on hNav1.3 (Table 22, use, […]), 20 nM.
